Test results as given in patent US9302999B2, “Substituted triazoles as herbicides” (E. I. DU PONT DE NEMOURS AND COMPANY, priority 2012, dated 2016).
Read-outs that look alike come from different tables or passages of the source.

Columns and labels:
Type in all cases: in vivo
[1] = test system: crabgrass, large (large crabgrass, Digitaria sanguinalis); experiment: Test A pre-/postemergence: crabgrass, large; details: for pest or weed control at 125 g/ha / pest or weed control at 500 g/ha: Digitaria sanguinalis, 240 h
Procedure, shortened: (§1)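 Rating scale 0–100 (100 = complete control), visual, ~10 days after application in the greenhouse. Applications: preemergence directed soil spray; postemergence at 1–2 leaves.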

[2] = test system: barnyardgrass (Echinochloa crus-galli); experiment: Test B flooded paddy: barnyardgrass; details: Flood, applied to paddy water at 2-leaf stage, visually evaluated after 13 to 15 days
Procedure, shortened: (§2)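 Greenhouse assay lasting 13 to 15 days. Treatment was into water flooding pots 3 cm deep, at the 2-leaf stage, with that level sustained afterwards. Scores compare treated with control plants visually, 100 denoting complete control and 0 no effect; a dash marks no test result.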

[3] = test system: foxtail, giant (giant foxtail, Setaria faberii); experiment: Test A pre-/postemergence: foxtail, giant; details: for pest or weed control at 125 g/ha / pest or weed control at 500 g/ha: Setaria faberi, 240 h
Procedure, shortened: as §1

[4] = test system: ducksalad (Heteranthera limosa); experiment: Test B flooded paddy: ducksalad; details: Flood, applied to paddy water at 2-leaf stage, visually evaluated after 13 to 15 days
Procedure, shortened: as §2

[5] = test system: pigweed (Amaranthus retroflexus); experiment: Test A pre-/postemergence: pigweed; details: for pest or weed control at 125 g/ha / pest or weed control at 500 g/ha: Amaranthus retroflexus, 240 h
Procedure, shortened: as §1

[6] = test system: velvetleaf (Abutilon theophrasti); experiment: Test A pre-/postemergence: velvetleaf; details: for pest or weed control at 125 g/ha / pest or weed control at 500 g/ha: Abutilon theophrasti, 240 h
Procedure, shortened: as §1

wild oat (Avena fatua) = experiment: Test C pre-/postemergence: wild oat; details: Preemergence
Procedure, shortened: (§3)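 Visual injury scored 0–100 (100 = complete control) against untreated controls after 13–15 greenhouse days. Surfactant-containing solvent formulations applied either to soil after sowing (loam/sand) or over 1- to 4-leaf plants, 2–18 cm tall.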

[7] = test system: ragweed (common ragweed, Ambrosia elation); experiment: Test C pre-/postemergence: ragweed; details: Preemergence
Procedure, shortened: as §3

kochia (Kochia scoparia) = experiment: Test C pre-/postemergence: kochia; details: Preemergence
Procedure, shortened: as §3

[8] = test system: foxtail, giant (giant foxtail, Setaria faberii); experiment: Test C pre-/postemergence: foxtail, giant; details: Preemergence
Procedure, shortened: as §3

[9] = Postemergence, 125 g ai/ha, 0 to 100 scale, 0 is no effect, 100 is complete control
[10] = Postemergence, 500 g ai/ha, visual rating on 0 to 100 scale (0 no effect, 100 complete control), approximately ten days
[11] = Preemergence, 125 g ai/ha, 0 to 100 scale where 0 is no effect and 100 is complete control
[12] = Preemergence, 500 g ai/ha, 0 to 100 scale (0 no effect, 100 complete control)
[13] = 31 g ai/ha, scale of 0 to 100, 0 is no effect, 100 is complete control
[14] = 62 g ai/ha, scale of 0 to 100, 0 is no effect, 100 is complete control
[15] = 125 g ai/ha, scale 0 to 100, 0 no effect, 100 complete control
[16] = 250 g ai/ha, scale 0 to 100, 0 no effect, 100 complete control
[17] = Postemergence, 500 g ai/ha, 0 to 100 scale, 0 is no effect, 100 is complete control

Structure (SMILES)	Plant response rating, Barnyardgrass (0 to 100 scale, 0 is no effect, 100 is complete control) ([2]; 250 g ai/ha)	Plant response rating, Ducksalad (0 to 100 scale, 0 is no effect, 100 is complete control) ([4]; 250 g ai/ha)	Plant response rating, Crabgrass, Large [1, 11]	Plant response rating, Crabgrass, Large [1, 12]	Plant response rating, Foxtail, Giant [3, 11]	Plant response rating, Foxtail, Giant [3, 12]	Plant response rating, Ragweed [7, 13]	Plant response rating, Ragweed [7, 14]	Plant response rating, Ragweed [7, 15]	Plant response rating, Ragweed [7, 16]	Plant response rating, Pigweed [5, 9]	Plant response rating, Pigweed [5, 11]	Plant response rating, Pigweed [5, 12]	Plant response rating, Velvetleaf [6, 9]	Plant response rating, Velvetleaf [6, 11]	Plant response rating, Velvetleaf [6, 12]	Plant response rating, Foxtail, Giant [8, 13]	Plant response rating, Foxtail, Giant [8, 14]	Plant response rating, Foxtail, Giant [8, 15]	Plant response rating, Foxtail, Giant [8, 16]	further results
Cc1nn(-c2ccc(F)cc2F)nc1Cc1ccnc(C(F)(F)F)c1 [Compound 54, 4-[[2-(2,4-difluorophenyl)-5-methyl-2H-1,2,3-triazol-4-yl]methyl]-2-(trifluoromethyl)pyridine]	30	85	–	–	–	–	–	–	–	–	–	–	–	–	–	–	–	–	–	–	pest or weed control at 125 g/ha ([1]; post-emergence, Postemergence, 125 g ai/ha, 0 to 100 scale, 0 is no effect, 100 is complete control, read-out: Crabgrass, Large plant response rating): 80%; pest or weed control at 500 g/ha ([1]; post-emergence, Postemergence, 500 g ai/ha, visual rating on 0 to 100 scale (0 no effect, 100 complete control), approximately ten days, read-out: Crabgrass, Large plant response rating): 90%; pest or weed control at 125 g/ha ([1]; pre-emergence, Preemergence, 125 g ai/ha, 0 to 100 scale (0 no effect, 100 complete control), read-out: Plant response rating, Crabgrass, Large): 100%; pest or weed control at 500 g/ha ([1]; pre-emergence, Preemergence, 500 g ai/ha, 0 to 100 scale, 0 is no effect, 100 is complete control, read-out: Plant response rating, Crabgrass, Large): 100%; pest or weed control at 125 g/ha ([3]; post-emergence, Postemergence, 125 g ai/ha, 0 to 100 scale, 0 is no effect, 100 is complete control, read-out: Foxtail, Giant plant response rating): 80%; pest or weed control at 500 g/ha ([3]; post-emergence, Postemergence, 500 g ai/ha, visual rating on 0 to 100 scale (0 no effect, 100 complete control), approximately ten days, read-out: Foxtail, Giant plant response rating): 90%; pest or weed control at 125 g/ha ([3]; pre-emergence, Preemergence, 125 g ai/ha, 0 to 100 scale (0 no effect, 100 complete control), read-out: Plant response rating, Foxtail, Giant): 100%; pest or weed control at 500 g/ha ([3]; pre-emergence, Preemergence, 500 g ai/ha, 0 to 100 scale, 0 is no effect, 100 is complete control, read-out: Plant response rating, Foxtail, Giant): 100%; pest or weed control at 125 g/ha ([5]; post-emergence, Postemergence, 125 g ai/ha, 0 to 100 scale, 0 is no effect, 100 is complete control, read-out: Pigweed plant response rating): 100%; pest or weed control at 500 g/ha ([5]; post-emergence, Postemergence, 500 g ai/ha, visual rating on 0 to 100 scale (0 no effect, 100 complete control), approximately ten days, read-out: Pigweed plant response rating): 100%; pest or weed control at 125 g/ha ([5]; pre-emergence, Preemergence, 125 g ai/ha, 0 to 100 scale (0 no effect, 100 complete control), read-out: Plant response rating, Pigweed): 100%; pest or weed control at 500 g/ha ([5]; pre-emergence, Preemergence, 500 g ai/ha, 0 to 100 scale, 0 is no effect, 100 is complete control, read-out: Plant response rating, Pigweed): 100%; pest or weed control at 125 g/ha ([6]; post-emergence, Postemergence, 125 g ai/ha, 0 to 100 scale, 0 is no effect, 100 is complete control, read-out: Velvetleaf plant response rating): 90%; pest or weed control at 500 g/ha ([6]; post-emergence, Postemergence, 500 g ai/ha, visual rating on 0 to 100 scale (0 no effect, 100 complete control), approximately ten days, read-out: Velvetleaf plant response rating): 100%; pest or weed control at 125 g/ha ([6]; pre-emergence, Preemergence, 125 g ai/ha, 0 to 100 scale (0 no effect, 100 complete control), read-out: Plant response rating, Velvetleaf): 30%; pest or weed control at 500 g/ha ([6]; pre-emergence, Preemergence, 500 g ai/ha, 0 to 100 scale, 0 is no effect, 100 is complete control, read-out: Plant response rating, Velvetleaf): 60%
Cc1nn(-c2ccc(F)cc2F)nc1Oc1ccnc(C(F)(F)F)c1 [Compound 146]	50	60	100	100	100	100	0	0	45	45	100	100	100	70	10	50	40	100	100	100	Crabgrass, Large plant response rating [1, 9]: 80; Crabgrass, Large plant response rating [1, 10]: 90; Plant response rating, Oat, Wild (wild oat (Avena fatua); [13]): 5; Plant response rating, Oat, Wild (wild oat (Avena fatua); [14]): 40; Plant response rating, Oat, Wild (wild oat (Avena fatua); [15]): 85; Plant response rating, Oat, Wild (wild oat (Avena fatua); [16]): 90; Foxtail, Giant plant response rating [3, 9]: 80; Foxtail, Giant plant response rating [3, 10]: 90; Pigweed plant response rating [5, 10]: 100; Plant response rating, Kochia (kochia (Kochia scoparia); [13]): 30; Plant response rating, Kochia (kochia (Kochia scoparia); [14]): 55; Plant response rating, Kochia (kochia (Kochia scoparia); [15]): 85; Plant response rating, Kochia (kochia (Kochia scoparia); [16]): 85; Velvetleaf plant response rating [6, 10]: 100
CCOCc1nn(-c2ccc(F)cc2)nc1Oc1ccnc(C(F)(F)F)c1 [Compound 163]	–	–	100	100	100	100	0	10	20	35	100	100	100	40	0	20	40	60	80	100	Plant response rating, Crabgrass, Large [1, 9]: 70; Crabgrass, Large plant response rating [1, 17]: 100; Plant response rating, Barnyardgrass (0 to 100 scale, 0 is no effect, 100 is complete control) ([2]; 125 g ai/ha): 15; Plant response rating, Foxtail, Giant [3, 9]: 60; Foxtail, Giant plant response rating [3, 17]: 90; Plant response rating, Ducksalad (0 to 100 scale, 0 is no effect, 100 is complete control) ([4]; 125 g ai/ha): 70; Pigweed plant response rating [5, 17]: 100; Velvetleaf plant response rating [6, 17]: 100
